Consider five compounds from patent US20210179577A1, “AROMATIC SULFONAMIDE DERIVATIVES FOR THE TREATMENT OF ISCHEMIC STROKE” (Bayer Aktiengesellschaft, priority 2017, published 2021).

One test deals with T1, human P2X4 (Homo sapiens, UniProt Q99571).
T1 sequence (Q99571 1-388): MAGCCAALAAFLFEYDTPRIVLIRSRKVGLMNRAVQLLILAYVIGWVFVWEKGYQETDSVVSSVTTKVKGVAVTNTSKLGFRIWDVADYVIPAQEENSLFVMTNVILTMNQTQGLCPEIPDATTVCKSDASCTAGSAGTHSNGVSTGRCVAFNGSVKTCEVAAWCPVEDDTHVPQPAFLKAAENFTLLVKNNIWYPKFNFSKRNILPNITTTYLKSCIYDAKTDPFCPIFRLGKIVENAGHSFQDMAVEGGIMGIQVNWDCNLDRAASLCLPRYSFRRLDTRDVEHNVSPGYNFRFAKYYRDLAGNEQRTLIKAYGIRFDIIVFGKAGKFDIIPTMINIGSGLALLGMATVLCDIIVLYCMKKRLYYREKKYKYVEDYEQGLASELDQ
The test is described as follows: Human P2X4 HEK Cell FLIPR Assay. It is filed as cell-based. Set-up: expressed in transfected cells; host or cells: HEK293. The conditions noted are these: HEK293 cells, agonist Bz-ATP at EC80. The protocol: HEK293 cells stably expressing human P2X4 were plated in poly-D-lysine-coated 384-well plates at a seeding density of 30000 cells/well and incubated overnight. P2X4 function was assessed by measuring intracellular calcium changes using the calcium-chelating dye Fluo8-AM (Molecular Devices) on a fluorescent imaging plate reader (FLEX/FLIPR station; Molecular Devices). On the day of the assay, the medium was removed and the cells were incubated for 30 min at 37° C. and 5% CO2 in 30 μL of dye buffer (Hank's balanced salt solution, 10 mM HEPES, 1.8 mM CaCl2, 1 mM MgCl2, 2 mM probenecid, 5 mM D-glucose monohydrate, 5 μM Fluo8-AM, pH=7.4). Compounds diluted in probenecid buffer (Hank's balanced salt solution, 10 mM HEPES, 1.8 mM CaCl2, 1 mM MgCl2, 2 mM probenecid, 5 mM D-glucose monohydrate, pH=7.4) were added in a volume of 10 μL and allowed to incubate for 30 min at room temperature. The final assay DMSO concentration was 0.5%. The agonist, Bz-ATP (Tocris), was added in a volume of 10 μL at a concentration representing the EC80 value. The EC80 value of Bz-ATP was determined each assay day prior to compound profiling. The fluorescence was measured for an interval of 120 sec at 2 sec intervals. The excitation and emission wavelengths used to monitor fluorescence were 470-495 nm and 515-575 nm, respectively. The data was analyzed based on the increase in peak relative fluorescence units (RFU) compared to the basal fluorescence and the data was normalized to the agonist control. The compounds were tested in triplicates per plate and mean values were plotted in Excel XL-Fit to determine IC50 values, percentage of maximal inhibition and the Hill coefficients.

A further test has as its target T2, hP2X4 (Homo sapiens, UniProt Q99571).
T2 construct: expressed in transfected cells; host or cells: HEK-293 mito-Photina, clone 2a/4
T2 sequence (Q99571 1-388): T1 sequence (Q99571 1-388)
Nature of the test: Human P2X4 HEK Cell Electrophysiology Assay B (QPatch). It is filed as cell-based. The conditions noted are these: ATP 5 microM, -90 mV; read-out: Human P2X4 HEK Cells (QPatch Electrophysiology) avg IC50. The protocol:
Cell culture conditions: HEK-293 mito-Photina pcDNA3(neo-)/pPURO N/pcDNA3_P2RX4, clone 2a/4 (HEK-293 mito-Photina/hP2RX4) cells were cultured in EMEM Minimum Essential Medium Eagle with Earl's salts Balanced Salt Solution (BioWhittaker cat. BE12-125F) supplemented with 5 mL of 200 mM Ultraglutaminel (BioWhittaker cat. BE17-605E/U1), 5 mL of 100× Penicillin/Streptomycin (BioWhittaker cat. DE17-602E; final concentration 1%), 4 mL of 50 mg/mL G418 (Sigma cat. G8168-100 mL; final concentration 400 μg/mL), 10 μL of 10 mg/mL Puromicin (InvivoGen cat. ant-pr-1; final concentration 0.2 μg/mL) and 50 mL of Fetal Bovine Serum (Sigma cat. F7524; final concentration 10%).
Experimentalprotocol: HEK-293 cell lines are seeded 72 or 96 hours before experiment, at a concentration of 5 or 2.5 million cells, respectively onto a T225 flask. Just before the experiments cells are washed twice with D-PBS w/o Ca2+/Mg2+(Euroclone cat. ECB4004L) and detached from the flask with trypsin-EDTA (Sigma, cat. T4174 diluted 1/10). Cells are then re-suspended in the suspension solution: 25 mL EX-CELL ACF CHO medium (Sigma, cat. C5467); 0.625 mL HEPES (BioWhittaker, cat. BE17-737E); 0.25 mL of 100× Penicillin/Streptomycin (BioWhittaker, cat. DE17-602E), 0.1 mL of Soybean Trypsin Inhibitor 10 mg/mL (Sigma, cat. T6522) and placed on the QPatch 16X.
Compound preparation and storage: Compound stock solutions (10 mM; 100% DMSO; stored at −20° C.) were used. Fresh solutions from stock (1 or 3 mM, 100% DMSO) were prepared just before the experiments (0.1% final DMSO concentration).
Patch clamp analysis with QPatch16X (FIG. 1): Standard whole-cell voltage clamp experiments are performed at room temperature using the multihole technology.
For the voltage clamp experiments on hP2X4, data are sampled at 2 KHz. After establishment of the seal and the passage in the whole cell configuration, the cells are held at −90 mV and the hP2X4 current is evoked by the agonist in the absence (vehicle period, i.e. 0.1% DMSO) or in the presence of the compound under investigation at increasing concentrations; see the application protocol in FIG. 1.
Output: the maximum inward current induced by the agonist (ATP 5 microM).
The intracellular solution contained (mM) 135 CsF, 10 NaCl, 1 EGTA, 10 HEPES (pH 7.2 with CsOH) whereas the extracellular solution (mM) 145 NaCl, 4 KCl, 0.5 MgCl2, 1 CaCl2, […], 10 Glucose (pH 7.4 with NaOH).
For data collection, the Sophion software was used and the analysis was performed off-line using Excel and GraphPad Prism.
When possible, i.e. when the % of inhibition with the highest concentration tested was more than 50%, the dose-response curves data were fitted with the following equation:
[X is log of concentration; Y is normalized response (100% down to 0%, decreasing as X increases); Log IC50 same log units as X; HillSlope is unitless slope factor or hill slope]

SMILES strings stand for the structures.

As usually defined, the IC50 is the concentration needed to halve the response being measured. Consider `NS(=O)(=O)c1cc(NC(=O)Cc2ccccc2Cl)ccc1-n1cc(C(F)(F)F)cn1` [Example 19, 2-(2-Chlorophenyl)-N-{3-sulfamoyl-4-[4-(trifluoromethyl)-1H-pyrazol-1-yl]phenyl}acetamide], for which the results for the IC50 at human P2X4 and on hP2X4 were 47 nM and 278 nM, respectively.

As for `NS(=O)(=O)c1cc(NC(=O)Cc2ccccc2Cl)ccc1-n1cc(F)cn1` [Example 26, 2-(2-Chlorophenyl)-N-[4-(4-fluoro-1H-pyrazol-1-yl)-3-sulfamoylphenyl]acetamide], the concentration for half-maximal inhibition (IC50) at human P2X4 was determined as 27 nM; on hP2X4, 222 nM.

In turn, `N#Cc1cnn(-c2ccc(NC(=O)Cc3ccccc3Cl)cc2S(N)(=O)=O)c1` [Example 39, 2-(2-Chlorophenyl)-N-[4-(4-cyano-1H-pyrazol-1-yl)-3-sulfamoylphenyl]acetamide] showed an IC50 on human P2X4 of 32 nM.

Consider `NS(=O)(=O)c1cc(NC(=O)Cc2ccccc2Cl)ccc1-c1cnn(C(F)F)c1` [Example 326, 2-(2-Chlorophenyl)-N-{4-[1-(difluoromethyl)-1H-pyrazol-4-yl]-3-sulfamoylphenyl}acetamide], for which the IC50 at human P2X4 was determined as 17 nM; on hP2X4, 51 nM.

For the compound `NS(=O)(=O)c1cc(NC(=O)Cc2ccccc2Cl)cnc1-n1cc(C(F)(F)F)cn1` [Example 380, 2-(2-Chlorophenyl)-N-{5-sulfamoyl-6-[4-(trifluoromethyl)-1H-pyrazol-1-yl]pyridin-3-yl}acetamide], the IC50 on human P2X4 amounted to 299 nM; at hP2X4, 157 nM.
